Measurements from patent publication US9855245B2, “Methods for improving lipid profiles using atrasentan” (AbbVie Inc., priority 2013, dated 2018).

Test system: subjects with type 2 diabetes and nephropathy
Test: Example 1: Phase 2b randomized, double-blind, placebo-controlled 12-week clinical study
[1] = 0.75 mg/day, baseline to final on-treatment measurement

Protocol: The primary efficacy endpoint was the change from baseline to Week 12 in log-transformed UACR with the primary analysis conducted using mixed-effects, maximum likelihood, repeated measures (MMRM) with fixed effects for treatment, country, visit, and treatment-by-visit interaction, with baseline measurement and baseline-by-visit interaction as covariates.
All safety analyses were performed on treatment-emergent adverse events only. Treatment-emergent adverse events were defined as those that first occurred or worsened on or after the date of first dose of study drug through 30 days after the last dose of study drug.

SMILES: CCCCN(CCCC)C(=O)CN1C[C@H](c2ccc3c(c2)OCO3)[C@@H](C(=O)O)[C@@H]1c1ccc(OC)cc1 [Atrasentan, (2R,3R,4S)-4-(1,3-benzodioxol-5-yl)-1-[2-(dibutylamino)-2-oxoethyl]-2-(4-methoxyphenyl)pyrrolidine-3-carboxylic acid]
- Any adverse event (0.75 mg, N = 59): 37 (62.7) N (%) of Subjects
- Any adverse event leading to discontinuation of study drug (0.75 mg, N = 59): 5 (8.5) N (%) of Subjects
- Death (0.75 mg, N = 59): 0 N (%) of Subjects
- Fatal adverse event (0.75 mg, N = 59): 0 N (%) of Subjects
- Possibly or probably drug-related adverse event (0.75 mg, N = 59): 16 (27.1) N (%) of Subjects
- Serious adverse event (0.75 mg, N = 59): 4 (6.8) N (%) of Subjects
- Severe adverse event (0.75 mg, N = 59): 5 (8.5) N (%) of Subjects
- Cholesterol, Difference (95% CI) from placebo (0.75 mg/day): −14.1 (−28.65, 0.53) mg/dL
- Cholesterol, Final On-Treatment Visit Mean (SD) (0.75 mg/day): 148.9 (36.93) mg/dL
- Cholesterol, LS Mean Change from Baseline (SE) (0.75 mg/day): −13.0 (3.93) mg/dL
- HDL-C, Difference (95% CI) from placebo (0.75 mg/day): 0.2 (−3.68, 4.13) mg/dL
- HDL-C, Final On-Treatment Visit Mean (SD) (0.75 mg/day): 42.1 (12.06) mg/dL
- HDL-C, LS Mean Change from Baseline (SE) (0.75 mg/day): −2.2 (1.05) mg/dL
- Had ≧30% Reduction in UACR and No Edema (no moderate or severe adverse event of edema) (0.75 mg/day): 27 (47.4) Number (%) of Subjects
- Hemoglobin, Difference (95% CI) from placebo (0.75 mg/day): −0.94 (−1.423, −0.450) g/dL
- Hemoglobin, LS Mean Change from Baseline (SE) (0.75 mg/day): −0.97 (0.126) g/dL
- LDL-C, Difference (95% CI) from placebo (0.75 mg/day): −12.5 (−23.56, −1.41) mg/dL
- LDL-C, Final On-Treatment Visit Mean (SD) (0.75 mg/day): 71.4 (27.39) mg/dL
- LDL-C, LS Mean Change from Baseline (SE) (0.75 mg/day): −10.3 (3.01) mg/dL
- Percentage of Subjects with ≧30% Reduction in Log-Transformed UACR from Baseline to Final Measurement (0.75 mg/day): 50.9%
- Percentage of Subjects with ≧40% Reduction in Log-Transformed UACR from Baseline to Final Measurement (0.75 mg/day): 38.6%
- Percentage of Subjects with ≧50% Reduction in Log-Transformed UACR from Baseline to Final Measurement (0.75 mg/day): 29.8%
- Triglycerides, Difference (95% CI) from placebo (0.75 mg/day): −37.6 (−97.24, 22.01) mg/dL
- Triglycerides, Final On-Treatment Visit Mean (SD) (0.75 mg/day): 179.9 (101.27) mg/dL
- Triglycerides, LS Mean Change from Baseline (SE) (0.75 mg/day): −4.3 (16.05) mg/dL
- Weight, Difference (95% CI) from placebo (0.75 mg/day): −0.1 (−2.32, 2.07) kg
- Weight, Final On-Treatment Visit Mean (SD) (0.75 mg/day): 93.0 (21.28) kg
- decrease in weight at Week 12 (0.75 mg/day): 0.8 kg
- diastolic blood pressure, mean change from baseline to last on-treatment visit (0.75 mg/day): −1.49 mmHg
- direct effect on change in UACR (path analysis vs change in systolic blood pressure) (0.75 mg/day): 97.52%
- fatigue leading to discontinuation (0.75 mg/day): 1.7%
- geometric mean reduction in UACR, baseline to final on-treatment measurement (0.75 mg/day): 37.7%
- incidence of anemia (0.75 mg/day): 6.8%
- incidence of peripheral edema (0.75 mg/day): 32.2%
- mean changes in weight vs placebo (repeated-measures analysis) (0.75 mg/day): statistically significantly different from placebo only at Week 2
- mean diastolic blood pressure, difference from baseline (0.75 mg/day): statistically significant at Weeks 1, 4, and 6
- mean systolic blood pressure, difference from baseline (0.75 mg/day): statistically significant at Week 4
- peripheral edema leading to discontinuation (0.75 mg/day): 3.4%
- subjects discontinued because of an adverse event (0.75 mg/day): 5 subjects
- subjects discontinued prematurely from the study (0.75 mg/day): 13.6%
- subjects who discontinued study drug because of adverse events (0.75 mg/day): 8.5%
- subjects with adverse event infection (0.75 mg/day): 3.4%
- systolic blood pressure, mean change from baseline to last on-treatment visit (0.75 mg/day): −2.44 mmHg
- weight, mean change from baseline to last on-treatment visit (0.75 mg/day): -1.20 kg
- UACR Between-group Comparison Difference (90% CI) (0.75 mg/day vs placebo): −0.47 (−0.71, −0.22)
- Weight, LS Mean Change from Baseline (SE) (0.75 mg/day, Week 12): −0.8 (0.69) kg
- UACR Change from Baseline LS Mean (SE) [1]: −0.47 (0.12) log mg/g creatinine
- UACR Geometric Mean Change (Percent) [1]: −37.77%
- Any adverse event (1.25 mg, N = 64): 47 (73.4) N (%) of Subjects
- Any adverse event leading to discontinuation of study drug (1.25 mg, N = 64): 7 (10.9) N (%) of Subjects
- Death (1.25 mg, N = 64): 0 N (%) of Subjects
- Fatal adverse event (1.25 mg, N = 64): 0 N (%) of Subjects
- Possibly or probably drug-related adverse event (1.25 mg, N = 64): 27 (42.2) N (%) of Subjects
- Serious adverse event (1.25 mg, N = 64): 4 (6.3) N (%) of Subjects
- Severe adverse event (1.25 mg, N = 64): 1 (1.6) N (%) of Subjects
- Cholesterol, Difference (95% CI) from placebo (1.25 mg/day): −17.2 (−31.60, −2.88) mg/dL
- Cholesterol, Final On-Treatment Visit Mean (SD) (1.25 mg/day): 147.6 (33.53) mg/dL
- Cholesterol, LS Mean Change from Baseline (SE) (1.25 mg/day): −16.2 (3.75) mg/dL
- HDL-C, Difference (95% CI) from placebo (1.25 mg/day): 2.2 (−1.61, 6.08) mg/dL
- HDL-C, Final On-Treatment Visit Mean (SD) (1.25 mg/day): 43.4 (10.51) mg/dL
- HDL-C, LS Mean Change from Baseline (SE) (1.25 mg/day): −0.2 (1.00) mg/dL
- Had ≧30% Reduction in UACR and No Edema (no moderate or severe adverse event of edema) (1.25 mg/day): 28 (45.9) Number (%) of Subjects
- Hemoglobin, Difference (95% CI) from placebo (1.25 mg/day): −0.98 (−1.462, −0.505) g/dL
- Hemoglobin, Final On-Treatment Visit Mean (SD) (1.25 mg/day): 11.79 (1.702) g/dL
- Hemoglobin, LS Mean Change from Baseline (SE) (1.25 mg/day): −1.02 (0.120) g/dL
- LDL-C, Difference (95% CI) from placebo (1.25 mg/day): −13.1 (−23.98, −2.29) mg/dL
- LDL-C, Final On-Treatment Visit Mean (SD) (1.25 mg/day): 69.5 (22.54) mg/dL
- LDL-C, LS Mean Change from Baseline (SE) (1.25 mg/day): −11.0 (2.83) mg/dL
- Percentage of Subjects with ≧30% Reduction in Log-Transformed UACR from Baseline to Final Measurement (1.25 mg/day): 52.5%
- Percentage of Subjects with ≧40% Reduction in Log-Transformed UACR from Baseline to Final Measurement (1.25 mg/day): 36.1%
- Percentage of Subjects with ≧50% Reduction in Log-Transformed UACR from Baseline to Final Measurement (1.25 mg/day): 29.5%
- Triglycerides, Difference (95% CI) from placebo (1.25 mg/day): −64.6 (−123.32, −5.97) mg/dL
